Test results: patent US12252478B2
Where “and” joins values, the source holds several entries; their conditions need not be identical. Identical values can stand only once.

What was measured:
[1] = Intrinsic dissolution rate (VanKel instrument, Cary 100 photometer); assay type: physicochemical
Description: As measured on a VanKel instrument using a Cary 100 photometer, the intrinsic dissolution rate of Form A was determined in pH 4.5, pH 6.8 and 0.1 N HCl medium as follows:
As measured on a VanKel instrument using a Cary 100 photometer, the intrinsic dissolution rate of Form A was determined in pH 3.5, pH 4.5 and 0.1 N HCl medium as follows: […]

[2] = Hygroscopicity (water uptake); assay type: physicochemical
[3] = Solubility as a function of pH; assay type: physicochemical; details: above pH 3
[4] = Thermodynamic stability of Forms A and B: heating and cooling cycles, transition temperatures
[5] = Equilibration in water depending on pH / form conversion; assay type: physicochemical
Description: Forms A and B are enantiotropically related. […] Form B spontaneously transforms to Form A at ambient conditions. Form A can be converted to Modification HA, or Form HA, when equilibrated in water at pH 1.

[6] = heating/cooling rate 0.5° C./min
[7] = heating/cooling rate 10° C./min
[8] = heating/cooling rate 20° C./min
[9] = heating/cooling rate 40° C./min

With `O=C(Nc1ccc(OC(F)(F)Cl)cc1)c1cnc(N2CC[C@@H](O)C2)c(-c2ccn[nH]2)c1` [Free Base form A] the “Intrinsic DR value” ([1]; Acetate buffer pH 4.5) was “n.a (does not dissolve)”, the “Intrinsic DR value” ([1]; HCL 0.1N) was 1.8 mg/min/cm2 and 1.9 mg/min/cm2 and the “Intrinsic DR value” ([1]; pH = 6.8) was “n.a (does not dissolve)”. The water uptake ([2]; 25° C. up to 92% relative humidity) was “less than 0.1%” and the solubility [3] was “rather low”.

With `Cl.O=C(Nc1ccc(OC(F)(F)Cl)cc1)c1cnc(N2CC[C@@H](O)C2)c(-c2ccn[nH]2)c1` [crystal form B of the hydrochloride salt] the “form stability at ambient conditions” value ([4]; ambient conditions) was “spontaneously transforms back into Form A”, the “transition B → A” value [4, 6] was 60.5 °C and the “transition B → A” value ([4]; heating/cooling rate 1° C./min) was 53.8 °C. The “transition B → A” value ([4]; heating/cooling rate 5° C./min) was 38.5 °C, the “transition B → A” value [4, 7] was 37.5 °C and the “transition B → A” value [4, 8] was 34.7 °C. The “transition B → A” value [4, 9] was 32.2 °C and the decomposition observed ([4]; upon heating) was “above 240 °C”.

With `Cl.O=C(Nc1ccc(OC(F)(F)Cl)cc1)c1cnc(N2CC[C@@H](O)C2)c(-c2ccn[nH]2)c1` [form A of HCl salt] the “Intrinsic DR value” ([1]; Acetate buffer pH 4.5) was 0.01 mg/min/cm2, the “Intrinsic DR value” ([1]; Citrate buffer (pH 3.5)) was 0.02 mg/min/cm2 and the “Intrinsic DR value” ([1]; HCL 0.01N (pH 2)) was 2.25 mg/min/cm2. For the same compound, the “Intrinsic DR value” ([1]; HCL 0.1N (pH 1)) was 0.16 mg/min/cm2, the water uptake ([2]; 25° C. up to 95% relative humidity) was “less than 0.4%” and the solubility [3] was “rather low”. For the same compound, the “behaviour when equilibrated in water” value ([5]; pH 1) was “converting into the trihydrate HA”, the “behaviour when equilibrated in water” value ([5]; pH>3.5) was “prone to disproportionate” and the “transition A → B” value [4, 6] was 95.1 °C. For the same compound, the “transition A → B” value ([4]; heating/cooling rate 1° C./min) was 96.5 °C, the “transition A → B” value ([4]; heating/cooling rate 5° C./min) was 100.3 °C and the “transition A → B” value [4, 7] was 102.1 °C. The “transition A → B” value [4, 8] was 104.8 °C and the “transition A → B” value [4, 9] was 103.7 °C.
